Paper PMC8887546, “Design and Synthesis of Brain Penetrant Glycopeptide Analogues of PACAP With Neuroprotective Potential for Traumatic Brain Injury and Parkinsonism” (Frontiers in drug discovery, 2022)

Tests used:
[1] = system: C57BL/6 mice, diffuse TBI; assay: Neurological severity score after TBI; assay type: in vivo, mouse; settings: 10 mg/kg i.p. 30 min prior to TBI, 2, 5 and 7 DPI
Protocol: 30 min prior to TBI or sham injury, mice were randomly assigned to a therapeutic group and received an intraperitoneal injection of 2LS80Mel (10 mg/kg) or sterile saline (0.25 ml). Groups were as follows: TBI-2LS80Mel n = 17; TBI-vehicle n = 17; sham n = 22 (vehicle n = 11, 2LS80Mel n = 11).
For injury induction 24 h post-surgery, mice were re-anesthetized with 5% isoflurane delivered for 3 min. The cap was removed from the injury-hub assembly and the dura was visually inspected through the hub to ensure it was intact with no debris. […] Injured mice were monitored for presence of a forearm fencing response and righting reflex times were recorded as indicators of injury severity ([Hosseini and Lifshitz, 2009]). […] After spontaneously righting, mice were placed in a heated recovery cage and monitored until they were ambulatory (approximately 5–15 min) before being returned to their piezoelectric sleep cage (see below). […]
Neurological impairments were assessed at 2, 5, and 7 DPI using an 8-point NSS paradigm adapted from those previously used in experimental models of TBI and previously reported by our lab ([Chen et al., 1996]; [Semple et al., 2010]; [Pleasant et al., 2011]; [Ziebell et al., 2011]; [Rowe et al., 2018]; [Rowe et al., 2019]). […]

[2] = system: Sprague Dawley rats, 6-OHDA lesion; assay: Amphetamine-induced rotations, mild 6-OHDA hemi-parkinsonian rat model (study 1); assay type: in vivo; settings: mild lesion (25%), 15 mg/kg i.p. 6 h prior to and 24 h post-lesion, 2 + 4 weeks, vs vehicle
Protocol: Rats were treated with 2LS98Lac or saline (vehicle) as outlined in the Schemes in Figures 9A,B via intraperitoneal (i.p.) injection (15 mg/kg). All animals were made hemi-parkinsonian with unilateral, striatal 6-hydroxydopamine (Sigma Aldrich, St. Louis, MO) injections. After surgery, behavioral assessments were done at 2- and 4-weeks post-surgery. 24 h after the last test animals were either euthanized and whole brains were harvested for future biochemical analysis or perfused and brains collected for immunohistochemistry and stereological assessment of tyrosine hydroxylase-positive (TH+) cells remaining in the SNc. In study 1: n = 16 each group were included, and all underwent the behavioral analysis: n = 16, and for the stereology in the SNc, n = 8 each group was used. […]
In order to pharmacologically assess the degree of dopaminergic (DA) depletion in the lesioned side, animals were given amphetamine, an indirectly acting DA agonist and placed into a plexiglass cylinder (38 cm tall × 38 cm across) enclosed in an open field box ([Yue et al., 2011]). Dextro-amphetamine in sterile 0.9% saline (Sigma-Aldrich) was injected i.p. at 5 mg/kg, and rotations were recorded from above using Logitech HD web cameras connected to an Acer Aspire SWS-015 computer. An observer blinded to the groups counted rotations in both the ipsilateral and contralateral rotations for the entire 70 min period. […]

SMILES | Neurological severity score (sensorimotor deficits) [1] | Cumulative contralateral amphetamine-induced rotations [2]
CC[C@H](C)[C@H](NC(=O)CNC(=O)[C@H](CC(=O)O)NC(=O)[C@H](CO)NC(=O)[C@@H](N)Cc1c[nH]cn1)C(=O)N[C@@H](Cc1ccccc1)C(=O)N[C@H](C(=O)N[C@@H](CC(=O)O)C(=O)N[C@@H](CO)C(=O)N[C@@H](Cc1ccc(O)cc1)C(=O)N[C@@H](CO)C(=O)N[C@@H](CCCNC(=N)N)C(=O)N[C@@H](Cc1ccc(O)cc1)C(=O)N[C@@H](CCCNC(=N)N)C(=O)N[C@@H](CCCCN)C(=O)N[C@@H](CCC(N)=O)C(=O)N[C@@H](CC(C)C)C(=O)N[C@@H](C)C(=O)N[C@H](C(=O)N[C@@H](CCCCN)C(=O)N[C@@H](CCCCN)C(=O)N[C@@H](Cc1ccc(O)cc1)C(=O)N[C@@H](CC(C)C)C(=O)N[C@@H](C)C(=O)N[C@@H](C)C(=O)N[C@H](C(=O)N[C@@H](CC(C)C)C(=O)N[C@@H](CO[C@@H]1O[C@H](CO[C@H]2O[C@H](CO)[C@H](O)[C@H](O)[C@H]2O)[C@@H](O)[C@H](O)[C@H]1O)C(N)=O)C(C)C)C(C)C)[C@@H](C)O [Compound 2LS80Mel] | deficits were prevented | –
[2H]C([2H])([2H])C([2H])(C([2H])([2H])[2H])[C@]([2H])(NC(=O)[C@H](C)NC(=O)[C@H](C)NC(=O)[C@H](CC(C)C)NC(=O)[C@H](Cc1ccc(O)cc1)NC(=O)[C@H](CCCCN)NC(=O)[C@H](CCCCN)NC(=O)[C@@]([2H])(NC(=O)[C@H](C)NC(=O)[C@H](CC(C)C)NC(=O)[C@H](CCC(N)=O)NC(=O)[C@H](CCCCN)NC(=O)[C@H](CCCNC(=N)N)NC(=O)[C@H](Cc1ccc(O)cc1)NC(=O)[C@H](CCCNC(=N)N)NC(=O)[C@H](CO)NC(=O)[C@H](Cc1ccc(O)cc1)NC(=O)[C@H](CO)NC(=O)[C@H](CC(=O)O)NC(=O)[C@@H](NC(=O)[C@H](Cc1ccccc1)NC(=O)[C@@H](NC(=O)CNC(=O)[C@H](CC(=O)O)NC(=O)[C@H](CO)NC(=O)[C@@H](N)Cc1c[nH]cn1)[C@@H](C)CC)[C@@H](C)O)C([2H])(C([2H])([2H])[2H])C([2H])([2H])[2H])C(=O)N[C@@H](CC(C)C)C(=O)N[C@@H](CO[C@@H]1O[C@H](CO)[C@@H](O[C@@H]2O[C@H](CO)[C@H](O)[C@H](O)[C@H]2O)[C@H](O)[C@H]1O)C(N)=O [Compound 2LS98Lac] | – | significantly decreased
